# Data reported in patent US20070243180A1, “Composition Containing Reduced Coenzyme Q” (priority 2003, published 2007).
# Tests used:
# [1] = Solubility testing in water; type: physicochemical; settings: 1 g in 100 ml of water, stirred at 5,000 rpm for 30 seconds, observed after 1 hour of standing
# Procedure: Coenzyme Q10 bulk powder (Q-OH bulk powder) containing 98% of reduced coenzyme Q10 and the powdery compositions obtained in Examples 1 to 4 were subjected to solubility testing in the following manner. Thus, 1 g of each composition (test sample) was added to 100 ml of water, and the mixture was stirred at 5,000 rpm for 30 seconds using a mixer and then allowed to stand.
# [2] = Stability testing of reduced coenzyme Q10 against autooxidation on storage in air, protected against light; type: physicochemical; settings: in the presence of air, at 4 weeks after starting storage, HPLC
# Procedure: In the examples, a reduced coenzyme Q concentration and an oxidized coenzyme Q concentration were determined by the following HPLC analysis. Column; SYMMETRY C18 (product of Waters Corporation), 250 mm (length), 4.6 mm (inside diameter), mobile phase; C2H5OH:CH3OH=4:3 (v:v), detection wavelength; 210 nm, flow rate; 1 ml/min, retention time for a reduced coenzyme Q10; 9.1 min, retention time for an oxidized coenzyme Q10; 13.3 min. Reduced coenzyme Q10 bulk powder (Q-OH bulk powder) containing 2% of oxidized coenzyme Q10 and the powdery compositions I to IV respectively obtained in Examples 1 to 4 were subjected to stability testing in the following manner. Thus, each composition (test sample) was placed in a microtube and stored, in a state protected against light, at 23° C. or 40° C. in the presence of air. After 1, 2 or 4 weeks of storage, 25 mg of each sample was sampled and dissolved in ethanol, the concentrations of oxidized coenzyme Q10 and reduced coenzyme Q10 were measured by HPLC and the percentage of reduced coenzyme Q10 in total coenzyme Q10 as contained in the composition (test sample) was determined.
smiles,measurement,setting,value
COc1c(O)c(C)c(C/C=C(\C)CC/C=C(\C)CC/C=C(\C)CC/C=C(\C)CC/C=C(\C)CC/C=C(\C)CC/C=C(\C)CC/C=C(\C)CC/C=C(\C)CCC=C(C)C)c(O)c1OC [reduced coenzyme Q10],Solubility in water,[1],Insoluble
same,Solubility in water,[1]; listed as Coenzyme Q10 bulk powder (Q-OH bulk powder),"insoluble, forming orange-colored oil drops floating on the water"
same,residual reduced coenzyme Q10 percentage relative to total coenzyme Q10 contained in the composition,[2]; stored at 23° C.,41%
same,residual reduced coenzyme Q10 percentage relative to total coenzyme Q10 contained in the composition,[2]; stored at 40° C.,11%
